Measurements from patent US6897288B1, “Mage-A12 antigenic peptides and uses thereof” (Ludwig Institute for Cancer Research, priority 1999, dated 2005).

Test system: autologous cell line LB-831-EBV pulsed with MAGE-A12 peptides, lysis by CTL 501D/19 (HLA-Cw*07 restricted)
Experiment: Chromium release cytotoxicity assay with peptide-pulsed cells
Assay type: cell-based, human
Settings: effector to target ratio of 10, chromium release after 4 hours; for sensitization of peptide-pulsed LB-831-EBV cells to lysis by CTL 501D/19 (recognition by CTL): chromium-labeled cells pulsed 30 min with peptide
Method: The lytic activity of CTLs was tested in a chromium release assay as described previously (Boon et al., J. Exp. Med. 152:1184-1193, 1980). Briefly, 1,000 chromium-labeled cells in 100 μl were incubated in 96-well microplates with an equal volume of CTL at different effector to target ratios. Chromium release was measured after 4 h of incubation. For the peptide assay, labeled LB831-EBV cells were incubated for 30 min at 37° C. with various concentrations of peptides. CTL were then added and chromium release was measured as described above.
Cells transfected with fragments of 540 bp or more were capable of stimulating CTL 501D/19, whereas those transfected with shorter fragments were not. […] In the amino-acid sequence corresponding to nucleotides 525-540, two overlapping nonapeptides, EVVRIGHLY (codons 168-176 of MAGE-A12; SEQ ID NO:3) and VRIGHLYIL (codons 170-178 of MAGE-A12; SEQ ID NO:4) were found which conformed to the HLA-Cw7 peptide binding motif, i.e. tyrosine or leucine at the C terminus (Rammensee et al., Immunogenetics. 41:178, 1995). Decapeptide […] (SEQ ID NO:5), nonapeptide VRIGHLYIL (SEQ ID NO:4) and octapeptide RIGHLYIL (SEQ ID NO:6) sensitized the autologous lymphoblastoid cell line LB-83]-EBV to lysis by CTL 501D/19 (FIG. 4). Autologous cell line LB-831-EBV was loaded with MAGE-A12 peptides VRIGHLYIL (SEQ ID NO:4), VVRIGHLYIL (SEQ ID NO:5), or RIGHLYIL (SEQ ID NO:6), and contacted with CTL 501D/19. Chromium-labeled cells were pulsed for 30 min with the indicated concentrations of peptides (VRIGHLYIL (SEQ ID NO:4) or […] (SEQ ID NO:6)). CTL 501D/19 was added at an effector to target ratio of 10. Chromium release was measured after 4 hours.

EVVRIGHLY (listed as Homo sapiens) [SEQ ID NO:3, nonapeptide, codons 168-176 of MAGE-A12]
sensitization of peptide-pulsed LB-831-EBV cells to lysis by CTL 501D/19 (recognition by CTL): not recognized

RIGHLYIL [SEQ ID NO:6]
sensitization of peptide-pulsed LB-831-EBV cells to lysis by CTL 501D/19 (recognition by CTL): sensitized

VRIGHLYIL [SEQ ID NO:4]
EC50 (LB-831-EBV cells pulsed 30 min, read-out: peptide concentration giving half-maximal lysis by CTL 501D/19): 0.1 nM | sensitization of peptide-pulsed LB-831-EBV cells to lysis by CTL 501D/19 (recognition by CTL): sensitized

VVRIGHLYIL [SEQ ID NO:5]
sensitization of peptide-pulsed LB-831-EBV cells to lysis by CTL 501D/19 (recognition by CTL): sensitized
